Values joined by “and” are separate entries in the source; they are usually repeats but may differ in a detail not shown here. Equal entries are not always repeated. Structures can show the parent of a compound that is named as a salt. Marks after values point to notes of the source that are not given here.
Tests used:
[1] = Glucose tolerance studies; details: mean ± SE of 4 mice
Method: Glucose Tolerance Studies. Female C5781/6 mice were fasted overnight and administered a single dose of D(+) glucose (1 mg/kg) as a 0.1 g/ml solution po. […] Human recombinant insulin was administered at 0.075:g/kg ip (26) at the same time as glucose administration.
Values are the mean±SE of 4 mice per group.

[2] = test system: tumor phospho-Akt (A-549 tumor xenografts); experiment: Pharmacodynamic studies, tumor phospho-Akt in A-549 xenografts; type: in vivo, scid mice; details: gefitinib 75 mg/kg po every other day for 5 days
Text: Pharmacodynamic Studies. […] Tumor Akt activity was expressed as the ratio of phospho-Ser473-Akt to total Akt.

[3] = test system: A-549 human nsc lung cancer xenografts; experiment: Antitumor studies, PX-866 and gefitinib in A-549 xenografts; type: in vivo, scid mice
Method: Antitumor Studies. […] When the tumors reached 100 or 600 mm3 the mice were stratified into groups of 8 animals having approximately equal mean tumor volumes and drug administration was started. […] Animals were weighed weekly and tumor diameters were measured twice weekly at right angles (d short and d long) with electronic calipers and tumor volumes calculated by the formula volume=(dshort)2×(dlong))2. When the tumor reached 2,000 mm3 or more, or became necrotic the animals were euthanized.
In vivo antitumor studies. […] Tumors were allowed to grow to a mean volume of […] before drug treatment was started every other day for 14 doses. Antitumor activity is expressed as the % volume of the treated tumor/control tumor (T/C %) at the end of the dosing period. There were 8 mice in each group and all differences are p<0.01.

Panc-1 pancreatic = experiment: Antitumor activity of cytotoxic drugs alone or combined with PX-866, Panc-1 pancreatic (Table 2); type: in vivo; details: size 75 mm^3; gemcitabine ip 150 mg/kg Q3D × 3
A-549 lung = experiment: Antitumor activity of cytotoxic drugs alone or combined with PX-866, A-549 lung (Table 2); type: in vivo; details: size 300 mm^3; cisplatin ip 1 mg/kg QD × 5
HT-29 colon [4] = experiment: Antitumor activity of cytotoxic drugs alone or combined with PX-866, HT-29 colon (Table 2); type: in vivo; details: size 150 mm^3; cisplatin ip 2.5 mg/kg Q2D × 3
OvCaR-3 ovarian [5] = experiment: Antitumor activity of cytotoxic drugs alone or combined with PX-866, OvCar-3 ovarian (Table 2); type: in vivo; details: size 110 mm^3; taxol ip 12 mg/kg Q2D × 5
OvCaR-3 ovarian [6] = experiment: Antitumor activity of wortmannin analogs, OvCaR-3 ovarian tumor (Table 1); type: in vivo; details: initial tumor vol 120 mm^3; for T/C % (optimal test/control): day 40
HT-29 colon [7] = experiment: Antitumor activity of wortmannin analogs, HT-29 colon tumor (Table 1); type: in vivo; details: for T/C % (optimal test/control): day 16
p110α/p85α = molecular target: T1, p110α/p85α (Bos taurus, UniProt P32871); experiment: Inhibition of recombinant PtdIns-3-kinase, [32P]-ATP dependent phosphorylation of PtdIns; type: biochemical, bovine
T1 construct: purchased Upstate (Charlottesville, Va.)
T1 sequence (P32871 whole entry): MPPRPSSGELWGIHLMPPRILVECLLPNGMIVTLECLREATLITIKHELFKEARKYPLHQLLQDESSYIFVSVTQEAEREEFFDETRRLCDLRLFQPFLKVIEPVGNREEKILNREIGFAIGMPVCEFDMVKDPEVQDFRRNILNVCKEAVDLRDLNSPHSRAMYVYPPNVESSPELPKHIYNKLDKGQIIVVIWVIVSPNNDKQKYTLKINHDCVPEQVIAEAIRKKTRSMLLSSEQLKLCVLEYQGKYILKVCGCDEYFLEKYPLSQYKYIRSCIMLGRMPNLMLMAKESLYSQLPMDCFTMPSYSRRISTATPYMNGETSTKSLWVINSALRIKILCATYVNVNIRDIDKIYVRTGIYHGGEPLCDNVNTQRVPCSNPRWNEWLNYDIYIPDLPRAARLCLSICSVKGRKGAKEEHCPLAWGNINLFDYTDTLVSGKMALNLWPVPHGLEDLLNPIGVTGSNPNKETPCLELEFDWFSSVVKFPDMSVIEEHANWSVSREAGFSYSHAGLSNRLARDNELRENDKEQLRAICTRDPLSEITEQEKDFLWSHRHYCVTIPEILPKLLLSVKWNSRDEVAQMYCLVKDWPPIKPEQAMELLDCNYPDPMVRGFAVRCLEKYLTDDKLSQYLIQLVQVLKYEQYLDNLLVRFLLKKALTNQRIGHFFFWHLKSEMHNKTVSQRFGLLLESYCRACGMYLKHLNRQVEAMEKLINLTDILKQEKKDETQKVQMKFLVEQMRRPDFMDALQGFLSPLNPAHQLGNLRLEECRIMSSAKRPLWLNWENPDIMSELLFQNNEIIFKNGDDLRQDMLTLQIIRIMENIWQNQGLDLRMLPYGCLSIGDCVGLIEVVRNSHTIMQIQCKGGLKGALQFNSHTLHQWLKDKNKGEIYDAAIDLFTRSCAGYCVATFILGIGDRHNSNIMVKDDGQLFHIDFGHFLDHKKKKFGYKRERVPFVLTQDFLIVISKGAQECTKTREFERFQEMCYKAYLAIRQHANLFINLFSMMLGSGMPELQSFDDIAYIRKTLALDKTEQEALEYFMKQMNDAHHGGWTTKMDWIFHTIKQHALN
T1 sequence (P23727 2-724 partner): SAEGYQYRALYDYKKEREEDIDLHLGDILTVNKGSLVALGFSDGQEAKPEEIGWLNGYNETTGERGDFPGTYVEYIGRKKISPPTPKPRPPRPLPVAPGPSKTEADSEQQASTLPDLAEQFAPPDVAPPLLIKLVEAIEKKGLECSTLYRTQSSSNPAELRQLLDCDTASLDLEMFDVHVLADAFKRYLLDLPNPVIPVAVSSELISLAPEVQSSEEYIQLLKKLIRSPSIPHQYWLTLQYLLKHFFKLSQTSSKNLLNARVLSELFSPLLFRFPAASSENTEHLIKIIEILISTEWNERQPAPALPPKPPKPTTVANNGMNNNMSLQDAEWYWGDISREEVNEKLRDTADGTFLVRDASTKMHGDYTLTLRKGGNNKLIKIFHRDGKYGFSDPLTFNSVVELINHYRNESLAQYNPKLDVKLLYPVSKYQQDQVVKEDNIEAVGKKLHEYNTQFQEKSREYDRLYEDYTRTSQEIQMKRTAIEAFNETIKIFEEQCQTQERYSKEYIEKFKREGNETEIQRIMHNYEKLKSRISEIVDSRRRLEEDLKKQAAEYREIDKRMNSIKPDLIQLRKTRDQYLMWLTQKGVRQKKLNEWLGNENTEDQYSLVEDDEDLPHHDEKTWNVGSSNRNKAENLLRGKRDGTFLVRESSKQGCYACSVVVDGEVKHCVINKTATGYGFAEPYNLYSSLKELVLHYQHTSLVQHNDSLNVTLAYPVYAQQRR
Text: Materials and Methods. Compounds. […] Rabbit purified anti-phosphoSer473-Akt antibody, anti-Akt antibody, antiphospho Tyr1086-EGF-receptor antibody and anti-EGFR antibody were obtained from Cell Signaling Technology (Beverly, Mass.). Human recombinant p110α/p85α, p110β/p85α, p120 (and p110*/p85α PtdIns-3-kinases were obtained from Upstate (Charlottesville, Va.). Metformin hydrochloride was obtained from Spectrum Chemical (Gardena, Calif.), pioglitazone hydrochloride and recombinant human insulin from Sigma Chemical (St. Louis).
Measurement of PtdIns-3-kinase.

[8] = initial tumor vol 170 mm^3, 13 mg/kg/day ip Q1D × 9
[9] = initial tumor vol 180 mm^3, 0.75 mg/kg/day ip Q1D × 9

CCc1ccc(CCOc2ccc(CC3SC(=O)NC3=O)cc2)nc1 (stereo not drawn) [Pioglitazone, pioglitazone hydrochloride, reference compound]
plasma glucose AUC0-180 min ([1]; Pioglitazone 10 mg/kg ip QD × 7, without PX-866): 274 ± 3 mg·min/mL
plasma glucose AUC0-180 min ([1]; Pioglitazone 10 mg/kg ip QD × 7 with PX-866 10 mg/kg po, hydrochloride): 340 ± 39^c mg · min · ml^−1

COc1cc2ncnc(Nc3ccc(F)c(Cl)c3)c2cc1OCCCN1CCOCC1 [gefitinib, reference compound]
effect upon tumor phospho-Akt [2]: no significant effect
tumor T/Cs ([3]; administered long term, single agent (discussion)): around 50%
Tumor T/C % ([3]; gefitinib po 75 mg/kg QOD × 14, 100 mm3 tumors, end of dosing period, 75 mg/kg): 51% and 50.8%

Nc1ccn([C@@H]2O[C@H](CO)[C@@H](O)C2(F)F)c(=O)n1 [gemcitabine, reference compound]
Alone Growth delay days (Panc-1 pancreatic): 7 days
Alone TGI % (Panc-1 pancreatic): 38%
Alone log cell kill (Panc-1 pancreatic): 0.2

N.N.[Cl][Pt][Cl] [cisplatin, reference compound]
Alone Growth delay days (A-549 lung): 1 days
Alone TGI % (A-549 lung): 16%
Alone log cell kill (A-549 lung): 0.1
Alone Growth delay days (HT-29 colon [4]): 0 days
Alone TGI % (HT-29 colon [4]): 11%
Alone log cell kill (HT-29 colon [4]): 0

CC(=O)O[C@H]1C(=O)[C@@]2(C)[C@H]([C@H](OC(=O)c3ccccc3)[C@]3(O)C[C@H](OC(=O)[C@H](O)[C@@H](NC(=O)c4ccccc4)c4ccccc4)C(C)=C1C3(C)C)[C@]1(OC(C)=O)CO[C@@H]1C[C@@H]2O [taxol, paclitaxel, reference compound]
Alone Growth delay days (OvCaR-3 ovarian [5]): 13 days
Alone TGI % (OvCaR-3 ovarian [5]): 58%
Alone log cell kill (OvCaR-3 ovarian [5]): 1.0

COC[C@@H]1OC(=O)/C(=C/N2CCCC2)C2=C(O)C(=O)C3=C([C@H](OC(C)=O)C[C@]4(C)C(=O)CC[C@H]34)[C@]21C [PX-867, Acetic acid 6-hydroxy-1α-methoxymethyl-10β,13β-dimethyl-3,7,17-trioxo-4-pyrrolidin-1-yl-methylene-1,3,4,7,10,11β,12,13,14α,15,16,17-dodecahydro-2-oxa-cyclopenta[α]phenanthren-11-yl]
Growth Delay (OvCaR-3 ovarian [6]; 13 mg/kg/day ip Q1D × 9): 6 days
Log10 cell kill (OvCaR-3 ovarian [6]; 13 mg/kg/day ip Q1D × 9): 0.6
T/C % (optimal test/control) (OvCaR-3 ovarian [6]; 13 mg/kg/day ip Q1D × 9): 41 (40) %
Growth Delay (HT-29 colon [7]; [8]): 0 days
Log10 cell kill (HT-29 colon [7]; [8]): 0
T/C % (optimal test/control) (HT-29 colon [7]; [8]): 80 (16) %

COC[C@H]1OC(=O)c2coc3c2[C@@]1(C)C1=C(C3=O)[C@@H]2CCC(=O)[C@@]2(C)C[C@H]1OC(C)=O [wortmannin, reference compound]
Growth Delay (OvCaR-3 ovarian [6]; 0.75 mg/kg/day ip Q1D × 9): 5 days
Log10 cell kill (OvCaR-3 ovarian [6]; 0.75 mg/kg/day ip Q1D × 9): 0.5
T/C % (optimal test/control) (OvCaR-3 ovarian [6]; 0.75 mg/kg/day ip Q1D × 9): 47 (40) %
Growth Delay (HT-29 colon [7]; [9]): 5 days
Log10 cell kill (HT-29 colon [7]; [9]): 0.3
T/C % (optimal test/control) (HT-29 colon [7]; [9]): 36 (16) %
IC50 (p110α/p85α): 4 nM

CN(C)C(=N)N=C(N)N [Metformin, Metformin hydrochloride, reference compound]
plasma glucose AUC0-180 min ([1]; Metformin 250 mg/kg IP QD × 5, without PX-866): 367 ± 46 mg·min/mL
plasma glucose AUC0-180 min ([1]; Metformin 250 mg/kg IP QD × 5 with PX-866 10 mg/kg po, hydrochloride): 537 ± 4^b mg · min · ml^−1
plasma glucose AUC0-180 min ([1]; Metformin 250 mg/kg IP QD × 5 with PX-866 10 mg/kg po, listed as metformin, hydrochloride): had no effect

Insulin: recombinant human insulin from Sigma Chemical
plasma glucose AUC0-180 min ([1]; Insulin 0.075 μ/kg ip with PX-866 10 mg/kg po): 64 ± 5^ mg · min · ml^−1
plasma glucose AUC0-180 min ([1]; Insulin 0.075 μ/kg ip with PX-866 10 mg/kg po, listed as insulin): overcame the increase in plasma glucose caused by PX-866
plasma glucose AUC0-180 min ([1]; Insulin 0.075 μ/kg ip, without PX-866): 64 ± 25 mg·min/mL

Reference: patent publication US7858657B2 (Proix Pharmaceutical Corp., priority 2004, dated 2010)
